# Residues, ends and D or L forms follow the SMILES beside them.
# Target: T1, FL_Reg1 (Homo sapiens, UniProt Q5D1E8)
# T1 construct: made in house; host or cells: Expi293 cells
# T1 sequence (Q5D1E8 1-599): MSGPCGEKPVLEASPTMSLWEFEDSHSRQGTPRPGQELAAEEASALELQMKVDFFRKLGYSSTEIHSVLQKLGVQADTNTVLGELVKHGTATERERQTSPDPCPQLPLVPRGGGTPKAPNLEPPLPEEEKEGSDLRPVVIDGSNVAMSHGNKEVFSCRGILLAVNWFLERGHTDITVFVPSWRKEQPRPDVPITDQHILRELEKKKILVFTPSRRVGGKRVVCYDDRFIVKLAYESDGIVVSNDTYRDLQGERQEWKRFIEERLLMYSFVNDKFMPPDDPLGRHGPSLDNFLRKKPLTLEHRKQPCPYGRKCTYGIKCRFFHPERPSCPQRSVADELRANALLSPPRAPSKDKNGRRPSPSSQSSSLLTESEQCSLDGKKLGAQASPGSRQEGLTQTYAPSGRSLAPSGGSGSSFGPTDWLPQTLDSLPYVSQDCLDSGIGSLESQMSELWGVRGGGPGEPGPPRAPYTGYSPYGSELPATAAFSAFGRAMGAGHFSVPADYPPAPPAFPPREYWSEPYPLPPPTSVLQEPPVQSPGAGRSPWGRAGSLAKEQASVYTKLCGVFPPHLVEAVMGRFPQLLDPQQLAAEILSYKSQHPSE
# Assay: Binding of Regnase-1 and peptide compounds (affinity mass analysis, SEC then LC/MS)
# Details: 1 μM FL_Reg1, final compound concentration 1 μM, 23° C. for one hour
# Protocol: To a 96 PP plate (Greiner bio-one, 651201) coated with lipidure (Lipidure-CM5206) (NOF CORPORATION, 71S42000001), 2 μL of Tris-Buffer (25 mM Tris-NaOH pH 8.3, 300 mM NaCl, 1 mM DTT, 1 mM EDTA, 1% DMSO) was dispensed, and then 1 mM DMSO sample was added at 20 nL each with a LABCYTE ECHO (registered trademark) acoustic dispensing system. Furthermore, 18 μL of protein prepared at 1 μM FL_Reg1 in advance using Tris-Buffer was added (final compound concentration: 1 μM), and the mixture was incubated in the dark at 23° C. for one hour. Then, to a 96-well, 400 μL, Hydrophilic PVDF 0.45 μm, Long drip (Harvard, 74-5556), 100 μL of P-2, Fine (Bio-Rad, 1504114) which had been swollen in advance was added, and conditioning was performed by centrifuging several times at 2000× G for two minutes using the buffer. Next, 20 μL of the sample after incubation was added to the conditioned 96-well, 400 μL, Hydrophilic PVDF 0.45 μm, Long drip, and SEC treatment was performed by centrifugation at 2000×G for two minutes. To the liquid from SEC, 32 μL of acetonitrile (LC/MS grade, FUJIFILM Wako Pure Chemical Industries, Ltd.) supplemented with 0.1% formic acid (LC/MS grade, 067-04531, FUJIFILM Wako Pure Chemical Industries, Ltd.) was added, and this was centrifuged at 1800×G for five minutes, and the supernatant was used as an analysis sample for LC/MS measurement. Binding to Regnase-1 was detected for all of the peptide compounds, PP1 to PP25.
row,Compound,AS-MS ratio(%)
1,"CC[C@H](C)[C@@H]1NC(=O)[C@H](CC(N)=O)NC(=O)[C@H](Cc2ccc(O)cc2)NC(=O)[C@H](Cc2c[nH]c3ccccc23)NC(=O)[C@H](CO)NC(=O)[C@H](CC(N)=O)NC(=O)[C@H](CO)NC(=O)[C@H](Cc2ccccc2)NC(=O)[C@H](CC(N)=O)NC(=O)[C@H](C)N(C)C(=O)C[C@@H](C(=O)N2CCCC2)NC(=O)[C@H](Cc2c[nH]c3ccccc23)NC1=O [PP16] (HELM PEPTIDE1{[meA].N.F.S.N.S.W.Y.N.I.W.D.[C1CCN([*:1])C1]}$PEPTIDE1,PEPTIDE1,1:R1-12:R3$$$V2.0)",17.9
2,"CC[C@H](C)[C@@H]1NC(=O)[C@H](CO)NC(=O)[C@H](CCCNC(=N)N)NC(=O)[C@H](Cc2ccc(O)cc2)NC(=O)[C@H](Cc2ccc(O)cc2)NC(=O)[C@H](Cc2c[nH]c3ccccc23)NC(=O)[C@H](CO)NC(=O)[C@H](CCC(N)=O)NC(=O)[C@H](Cc2ccc(O)cc2)NC(=O)[C@H](CC(N)=O)NC(=O)[C@H](C)N(C)C(=O)C[C@@H](C(=O)N2CCCC2)NC(=O)[C@H](Cc2c[nH]c3ccccc23)NC1=O [PP10] (HELM PEPTIDE1{[meA].N.Y.Q.S.W.Y.Y.R.S.I.W.D.[C1CCN([*:1])C1]}$PEPTIDE1,PEPTIDE1,1:R1-13:R3$$$V2.0)",3.7
3,"CC[C@H](C)[C@@H]1NC(=O)[C@H](CCCNC(=N)N)NC(=O)[C@H](Cc2ccc(O)cc2)NC(=O)[C@H](Cc2c[nH]c3ccccc23)NC(=O)[C@H](CO)NC(=O)[C@H](CC(N)=O)NC(=O)[C@H](C)N(C)C(=O)C[C@@H](C(=O)N2CCCC2)NC(=O)[C@H](CC(C)C)NC(=O)CNC(=O)[C@H](Cc2c[nH]c3ccccc23)NC1=O [PP22] (HELM PEPTIDE1{[meA].N.S.W.Y.R.I.W.G.L.D.[C1CCN([*:1])C1]}$PEPTIDE1,PEPTIDE1,1:R1-11:R3$$$V2.0)",14.5

# Continued, values first:
row,AS-MS ratio(%),Compound
1,66.7,"CC[C@H](C)[C@@H]1NC(=O)[C@H](CC(N)=O)NC(=O)[C@H]([C@@H](C)CC)NC(=O)[C@H](Cc2ccc(O)cc2)NC(=O)[C@H](Cc2c[nH]c3ccccc23)NC(=O)[C@H](CO)NC(=O)[C@H](CC(N)=O)NC(=O)[C@H](C)N(C)C(=O)C[C@@H](C(=O)N2CCCC2)NC(=O)[C@H](Cc2c[nH]cn2)NC(=O)CNC(=O)[C@H](Cc2c[nH]c3ccccc23)NC1=O [PP15] (HELM PEPTIDE1{[meA].N.S.W.Y.I.N.I.W.G.H.D.[C1CCN([*:1])C1]}$PEPTIDE1,PEPTIDE1,1:R1-12:R3$$$V2.0)"
2,15.1,"CC[C@H](C)[C@@H]1NC(=O)[C@H](CCCCN)NC(=O)[C@H](Cc2ccc(O)cc2)NC(=O)[C@H](Cc2c[nH]c3ccccc23)NC(=O)[C@H](CO)NC(=O)[C@H](CC(N)=O)NC(=O)[C@H](C)N(C)C(=O)C[C@@H](C(=O)N2CCCC2)NC(=O)[C@H](CC(C)C)NC(=O)CNC(=O)[C@H](Cc2c[nH]c3ccccc23)NC1=O [PP21] (HELM PEPTIDE1{[meA].N.S.W.Y.K.I.W.G.L.D.[C1CCN([*:1])C1]}$PEPTIDE1,PEPTIDE1,1:R1-11:R3$$$V2.0)"
